From ChEMBL document CHEMBL3272121, “Hypolipidemic analogues of ethyl 4-benzyloxybenzoate” (J Med Chem, 1977)

What was measured:
[1] = tested on: Rattus norvegicus; test: Hypolipidemic activity in CFY Sprague-Dawley rat assessed as serum cholesterol level at 0.25% dietary level administered for 7 days relative to control; type: functional
[2] = tested on: Rattus norvegicus; test: Hypolipidemic activity in CFY Sprague-Dawley rat assessed as serum triglyceride level at 0.25% dietary level administered for 7 days relative to control; type: functional
[3] = tested on: Rattus norvegicus; test: Toxicity in CFY Sprague-Dawley rat assessed as body weight gain at 0.25% dietary level administered for 7 days relative to control; type: organism-based; conditions: in vivo, po, 168 h
[4] = tested on: Rattus norvegicus; test: Toxicity in CFY Sprague-Dawley rat assessed as relative liver weight at 0.25% dietary level administered for 7 days relative to control; type: organism-based; conditions: in vivo, po, 168 h
[5] = tested on: Rattus norvegicus; test: Hypolipidemic activity in CFY Sprague-Dawley rat assessed as liver lipid per gm of liver at 0.25% dietary level administered for 7 days relative to control; type: functional

| Structure (SMILES) | Activity [1] [%] | Activity [2] [%] | Activity [3] [%] | Activity [4] [%] | Activity [5] [%] |
| --- | --- | --- | --- | --- | --- |
| O=Cc1ccc(OCc2ccc(F)cc2)cc1 | -15 | -59 | 16 | 15 |  |
| N#Cc1ccc(OCc2ccccc2)cc1 | 7 | -31 | -14 | 8 |  |
| CCOC(=O)c1ccc(OCc2ccc([N+](=O)[O-])cc2)cc1 | -12 | -28 | -15 | -2 |  |
| CCOC(=O)c1cccc(OCc2ccccc2)c1 | 4 | -30 | 4 | 6 |  |
| CCOC(=O)c1ccccc1OCc1ccccc1 | 0 | -15 | -26 | -2 |  |
| COC(=O)Cc1ccc(OCc2ccccc2)c(OC)c1 | -30 | -45 | -68 | 0 | 8 |
| CCCc1ccc(OCc2ccc(C)cc2)c(OC)c1 | -13 | 216 | -18 | 33 |  |
| COc1cc(C(C)=O)ccc1OCc1ccccc1 | 5 | -51 | -37 | 13 |  |
| COc1cc(C(=O)O)ccc1OCc1ccccc1 | 0 | -28 | 15 | 6 |  |
| COc1cc(C=O)ccc1OCc1ccccc1 | -23 | -18 | -16 | 0 | 1 |
| CC(=O)c1ccc(OCc2ccccc2)cc1 | 9 | -46 | -11 | -6 |  |
| N#Cc1ccc(OCc2ccc(Cl)c(Cl)c2)cc1 | -19 | -6 | -9 | 18 | 8 |
| N#Cc1ccc(OCc2ccc(F)cc2)cc1 | -17 | 1 | 6 | 20 | 7 |
| Cc1ccc(COc2ccc(C#N)cc2)cc1 | -19 | -58 | -29 | 27 | 14 |
| OCc1ccc(OCc2ccccc2)cc1 | -3 | -45 | 11 | 15 |  |
| CCCCCCCCCCCCc1ccc(OCc2ccccc2)cc1 | 2 | -37 | 9 | 8 |  |
| CCc1ccc(OCc2ccccc2)cc1 | -17 | -57 | -3 | 20 | -6 |
| Cc1ccc(OCc2ccccc2)cc1C | -3 | -62 | 24 | 13 |  |
| CCCCCCCCCCCCOC(=O)c1ccc(OCc2ccccc2)cc1 | -11 | -57 | -3 | 6 |  |
| CCCCCCCCCCOC(=O)c1ccc(OCc2ccccc2)cc1 | -9 | -64 | -17 | 13 |  |

| Structure (SMILES) | Activity [1] [%] | Activity [2] [%] | Activity [3] [%] | Activity [4] [%] | Activity [5] [%] |
| --- | --- | --- | --- | --- | --- |
| O=C(OCc1ccccc1)c1ccc(OCc2ccccc2)cc1 | -21 | -50 | 6 | 6 | 7 |
| O=C(Oc1ccccc1)c1ccc(OCc2ccccc2)cc1 | 0 | -18 | -1 | 0 |  |
| CCCCCCOC(=O)c1ccc(OCc2ccccc2)cc1 | -9 | -64 | -3 | 8 |  |
| O=C(OC1CCCC1)c1ccc(OCc2ccccc2)cc1 | -14 | -29 | -4 | -14 |  |
| CCCCOC(=O)c1ccc(OCc2ccccc2)cc1 | -10 | -47 | -18 | 4 |  |
| CCCCCCCCCCCCNC(=O)c1ccc(OCc2ccccc2)cc1 | 1 | -11 | 2 | -5 |  |
| O=C(NC1CCCCC1)c1ccc(OCc2ccccc2)cc1 | -5 | -18 | -21 | 5 |  |
| O=C(c1ccc(OCc2ccccc2)cc1)N1CCCCC1 | 14 | 10 | -67 | 2 |  |
| NC(=O)c1ccc(OCc2ccccc2)cc1 | -1 | -63 | -2 | 13 |  |
| O=C([O-])c1ccc(OCc2ccccc2)cc1.O=C([O-])c1ccc(OCc2ccccc2)cc1.[Ca+2] | -8 | -53 | -12 | 0 |  |
| O=C([O-])c1ccc(OCc2ccccc2)cc1.[K+] | -20 | -57 | -12 | 0 |  |
| Cc1ccc(COc2ccc(C(=O)O)cc2)cc1 | -10 | -57 | -2 | 11 |  |
| CCOC(=O)c1ccc(OCc2ccccc2C)cc1 | -10 | -58 | -23 | 0 |  |
| CCOC(=O)c1ccc(OCc2ccc(Cl)cc2)cc1 | -12 | -53 | -7 | 6 | 10 |
| CCOC(=O)c1ccc(OCc2cccc(Cl)c2)cc1 | -19 | -6 | -1 | 10 | -2 |
| CCOC(=O)c1ccc(OCc2ccccc2Cl)cc1 | -7 | -46 | -16 | 7 |  |
| CCOC(=O)c1ccc(OCc2ccc(Cl)cc2Cl)cc1 | -18 | -42 | -15 | -2 | 8 |
| CCOC(=O)c1ccc(OCc2cc(Cl)ccc2Cl)cc1 | -25 | -56 | 4 | 13 | 22 |
| CCOC(=O)c1ccc(OCc2ccc(Cl)c(Cl)c2)cc1 | -7 | 5 | -5 | 10 |  |
| O=C(O)c1ccc(OCc2ccc(Cl)c(Cl)c2)cc1 | -9 | -20 | 7 | 18 |  |

| Structure (SMILES) | Activity [1] [%] | Activity [2] [%] | Activity [3] [%] | Activity [4] [%] | Activity [5] [%] |
| --- | --- | --- | --- | --- | --- |
| CCOC(=O)c1ccc(OCc2ccc(I)cc2)cc1 | -18 | -60 | 7 | 11 | 3 |
| CCOC(=O)c1ccc(OCc2ccc(OC)cc2)cc1 | -7 | -55 | -52 | 20 |  |
| CCOC(=O)c1ccc(OCc2cccc(OC)c2)cc1 | -10 | -32 | 2 | 4 |  |
| COc1ccccc1COc1ccc(C(=O)O)cc1 | -29 | 71 | 3 | 17 |  |
| CCOC(=O)c1ccc(OCc2ccc(OC)c(OC)c2)cc1 | -1 | -33 | -20 | 11 |  |
| CCOC(=O)c1ccc(COc2ccc(C(=O)OCC)cc2)cc1 | -11 | -60 | 3 | -2 |  |
| CCOC(=O)Cc1ccc(OCc2cccc(OC)c2OC)cc1 | 1 | -25 | 12 | 20 |  |
| CCOC(=O)CCc1ccc(OCc2ccccc2F)cc1 | -4 | -49 | 14 | 7 |  |
| CCOC(=O)CCc1ccc(OCc2cccc(F)c2)cc1 | -11 | 57 | 12 | 7 |  |
| CCOC(=O)CCc1ccc(OCc2cccc(OC)c2OC)cc1 | 7 | -9 | 4 | 23 |  |
| CCOC(=O)CCCc1ccc(OCc2ccccc2)cc1 | -10 | -59 | -57 | 9 |  |
| CCOC(=O)c1ccc(COc2ccc(C)c(C)c2)cc1 | 3 | 109 | -1 | 10 |  |
| CCOC(=O)c1ccc(COc2ccc(C)cc2C)cc1 | 3 | 2 | 0 | 0 |  |
| CCOC(=O)c1ccc(COc2ccc(Cl)cc2)cc1 | -13 | 7 | -15 | 42 |  |
| CCOC(=O)c1ccc(COc2ccc(Br)cc2)cc1 | -6 | -16 | 3 | 24 |  |
| CCOC(=O)c1ccc(COc2ccc(F)cc2)cc1 | -14 | -50 | 16 | 19 |  |
| CCOC(=O)c1ccc(COc2ccc(OC)cc2)cc1 | 4 | -57 | -19 | -4 |  |
| CCOC(=O)c1ccc(COc2ccc(C#N)cc2)cc1 | -12 | -21 | -46 | 20 |  |
